One test relates to E. faecium ATCC 35667. Put plainly: MIC by broth microdilution method (CLSI). To be noted: Enterococcus faecium, ATCC35667, 24 h.
The subject of another test is E. faecalis ATCC 51299. Put plainly: MIC by broth microdilution method (CLSI). To be noted: Enterococcus faecalis, ATCC51299, 24 h.
The test system of a further test is MRSA ATCC 700699. In words: MIC by broth microdilution method (CLSI). To be noted: Staphylococcus aureus, 24 h.
For the next test, the system named is E. faecalis ATCC 29212. In words: MIC by broth microdilution method (CLSI). The conditions noted are these: Enterococcus faecalis, ATCC29212, 24 h.
For test [1], the system named is VR E. faecium ATCC 700221. In words: MIC by broth microdilution method (CLSI). The conditions noted are these: Enterococcus faecium, ATCC700221, 24 h.
Procedure: (§2) The compounds were tested for their antibacterial activities against the pathogenic nosocomial strains of Staphylococcus aureus, Enterococcus faecalis Enterococcus faecium, Acinetobacter baumannii. The minimal inhibitory concentration (MIC) was determined by the broth microdilution method according to the recommendations of the Clinical and Laboratory Standards Institute (CLSI) (CLSI M7-A9, 2012). For preparation of the inoculum the growth method was used. Bacterial cells were grown aerobically in Muller Hinton (MH) medium at 37°C and 180 rpm. A preculture was grown until log phase (OD600 nm ∼ 0.5) and then seeded at 5 x 10^4 bacteria/well in a total volume of 100 µL in 96 well round bottom microtiter plates and incubated with serially diluted test substances at a concentration range of 100-0.78 µM. The compounds were screened in two-fold serial dilution. Microplates were incubated aerobically at 37°C for 24 h. MICs were determined by identifying the minimum concentration of the compounds that led to complete inhibition of visual growth of the bacteria.
A further test has as its system S. aureus ATCC 25923. In words: MIC by broth microdilution method (CLSI). To be noted: Staphylococcus aureus, ATCC25923, 24 h.
A further test concerns M. tuberculosis H37Rv. Put plainly: MIC determination, resazurin microplate assay. In kind it is cell-based. To be noted: Mycobacterium tuberculosis, 120 h, five days, range 100-0.78 µM.
Test [2] relates to methicillin-resistant Staphylococcus aureus. Put plainly: MIC quantified via the BacTiter-Glo assay. It is filed as cell-based. The conditions noted are these: methicillin-resistant strain; 24 h. On the procedure: (§1) The MICs of compounds according to formulas (2), (3), (4), (7), (11), (12) and (18) were additionally quantified via the BacTiter-Glo™ assay (Promega, Madison, WI, USA). Briefly, after an incubation time of 24 h, each well was resuspended by pipetting, and 50 µL aliquots were transferred into an opaque-walled multiwell plate. Additionally, control wells containing medium without cells to determine background luminescence were prepared. 50 µL BacTiter-Glo™ reagent were added to each well. Contents were mixed and incubated for five minutes at room temperature. Luminescence was measured using a microplate reader. Growth was calculated relative to the background luminescence (0% growth) and a compound-free DMSO control (100% growth).

The test system of test [3] is methicillin-sensitive Staphylococcus aureus. In words: MIC quantified via the BacTiter-Glo assay. In kind it is cell-based. The conditions noted are these: methicillin-sensitive strain; 24 h. On the procedure:
as §1

The subject of test [4] is nosocomial pathogens and Mycobacterium tuberculosis. Put plainly: MIC determination, statements across the tested strains. It is filed as cell-based. The conditions noted are these: for activity against the tested strains: tested concentration range 100-0.78 µM.

Here are results for 14 compounds from patent EP3301096A1, “BIS-INDOLE DERIVATIVES FOR USE IN THE TREATMENT OF BACTERIAL INFECTIONS” (Heinrich Heine Universität Düsseldorf, priority 2016, dated 2018).

Procedure for E. faecalis ATCC 29212: as §2
Procedure for E. faecalis ATCC 51299: as §2
Procedure for E. faecium ATCC 35667: as §2
Procedure for MRSA ATCC 700699: as §2
Procedure for S. aureus ATCC 25923: as §2

`c1cnc2[nH]cc(-c3cnc(-c4c[nH]c5ncccc45)nc3)c2c1` [formula (13), 3,3'-(pyrimidine-2,5-diyl)bis(1H-pyrrolo[2,3-b]pyridine)]: the MIC in the test with E. faecium ATCC 35667 is > 100 µM; in the test on E. faecalis ATCC 51299 it was > 100 µM; in the test on MRSA ATCC 700699 it was > 100 µM; with E. faecalis ATCC 29212, 100 µM; in test [1], > 100 µM; in the test on S. aureus ATCC 25923, > 100 µM. The MIC with M. tuberculosis H37Rv is > 100 µM.
Consider `c1ccc2c(-c3csc(-c4c[nH]c5ccccc45)n3)c[nH]c2c1` [formula (18), 2,4-di(1H-indole-3-yl)thiazole], for which the MIC against E. faecium ATCC 35667 was 6.25 µM; against E. faecalis ATCC 51299, > 100 µM; against MRSA ATCC 700699, 3.12 µM; with E. faecalis ATCC 29212, > 100 µM; in test [1] it was 6.25 µM; in the test with S. aureus ATCC 25923, 6.25 µM. The compound also returned an MIC in the test on M. tuberculosis H37Rv of 100 µM. The “inhibition of Staphylococcus aureus (BacTiter-Glo)” value in test [2] and in [3] was “effectively inhibited” in each case.
For the compound `c1ccc2c(-c3cc(-c4c[nH]c5ccccc45)ncn3)c[nH]c2c1` [formula (15), 4,6-di(1H-indole-3-yl)pyrimidine], the MIC (with E. faecium ATCC 35667; in the test on E. faecalis ATCC 51299; against MRSA ATCC 700699; in the test on E. faecalis ATCC 29212; in test [1]; against S. aureus ATCC 25923) was > 100 µM each time. Moreover, in the test on M. tuberculosis H37Rv, the MIC is > 100 µM.
Turning to `c1ccc2c(-c3ccc(-c4c[nH]c5ccccc45)nn3)c[nH]c2c1` [formula (17), 3,6-Di(1H-indole-3-yl)pyridazine], the MIC was > 100 µM in the test on E. faecium ATCC 35667; 100 µM in the test with E. faecalis ATCC 51299; > 100 µM with MRSA ATCC 700699; 100 µM against E. faecalis ATCC 29212; > 100 µM in [1]; > 100 µM in the test with S. aureus ATCC 25923. The MIC with M. tuberculosis H37Rv was > 100 µM.
As for `Fc1ccc2[nH]cc(-c3cnc(-c4c[nH]c5ccc(F)cc45)nc3)c2c1` [formula (11), 3,3'-(pyrimidine-2,5-diyl)bis(5-fluoro-1H-indole)], the MIC in the test on E. faecium ATCC 35667 was 50 µM; against E. faecalis ATCC 51299, 100 µM; in the test with MRSA ATCC 700699 it was 12.5 µM; in the test on E. faecalis ATCC 29212, 100 µM; in test [1] it was 50 µM; in the test on S. aureus ATCC 25923, 100 µM. The MIC in the test with M. tuberculosis H37Rv is > 100 µM.
With `c1ccc2c(-c3cnc(-c4c[nH]c5ccccc45)cn3)c[nH]c2c1` [formula (10), 2,5-bis(1H-indole-3-yl)pyrazine], the MIC with E. faecium ATCC 35667 was > 100 µM; with E. faecalis ATCC 51299 it was 25 µM; against MRSA ATCC 700699, > 100 µM; with E. faecalis ATCC 29212 it was 12.5 µM; in [1], > 100 µM; against S. aureus ATCC 25923, > 100 µM. Also, in the test with M. tuberculosis H37Rv, the MIC is > 100 µM. The “effect against M. tuberculosis, S. aureus and E.faecium” value (“effect against M. tuberculosis” for short) in test [4] is “did not show any effect”.
Regarding `Fc1ccc2[nH]cc(-c3cnc(-c4c[nH]c5ccc(F)cc45)cn3)c2c1` [formula (5), 2,5-bis(5-fluoro-1H-indole-3-yl)pyrazine], the MIC (in the test with E. faecium ATCC 35667; against E. faecalis ATCC 51299; in the test with MRSA ATCC 700699; against E. faecalis ATCC 29212; in [1]; in the test with S. aureus ATCC 25923) was > 100 µM each time. The MIC in the test on M. tuberculosis H37Rv is > 100 µM. The “activity against the tested strains” value in test [4] is “no activity”.
For `COc1ccc2[nH]cc(-c3cnc(-c4c[nH]c5ccc(OC)cc45)cn3)c2c1` [formula (8), 2,5-bis(5-methoxy-1H-indole-3-yl)pyrazine], the MIC (against E. faecium ATCC 35667; in the test with E. faecalis ATCC 51299; in the test with MRSA ATCC 700699; in the test with E. faecalis ATCC 29212; in test [1]; against S. aureus ATCC 25923) was > 100 µM each time. Besides, the MIC against M. tuberculosis H37Rv is > 100 µM. The “effect against M. tuberculosis” value in test [4] is listed as “did not show any effect”.
On to `COc1ccc2c(-c3cnc(-c4c[nH]c5cc(OC)ccc45)cn3)c[nH]c2c1` [formula (9), 2,5-bis(6-methoxy-1H-indole-3-yl)pyrazine], for which the MIC (in the test with E. faecium ATCC 35667; in the test with E. faecalis ATCC 51299; in the test on MRSA ATCC 700699; against E. faecalis ATCC 29212; in [1]; with S. aureus ATCC 25923) was > 100 µM in each case. The MIC in the test with M. tuberculosis H37Rv is > 100 µM. The “effect against M. tuberculosis” value in [4] was “did not show any effect”.
Turning to `c1ccc2c(-c3cnc(-c4c[nH]c5ccccc45)nc3)c[nH]c2c1` [formula (12), 3,3'-(pyrimidine-2,5-diyl)bis(1H-indole)], the MIC was determined as 100 µM against E. faecium ATCC 35667; 100 µM against E. faecalis ATCC 51299; 12.5 µM with MRSA ATCC 700699; 50 µM against E. faecalis ATCC 29212; 100 µM in test [1]; 100 µM against S. aureus ATCC 25923. Besides, it took 50 µM to inhibit growth in the test with M. tuberculosis H37Rv (MIC).
As for `c1cc(-c2c[nH]c3ccccc23)nc(-c2c[nH]c3ccccc23)c1` [formula (16), 2,6-di(1H-indole-3-yl)pyridine], the MIC against E. faecium ATCC 35667 was > 100 µM; with E. faecalis ATCC 51299, 100 µM; against MRSA ATCC 700699, > 100 µM; in the test on E. faecalis ATCC 29212 it was 100 µM; in test [1], > 100 µM; against S. aureus ATCC 25923 it was > 100 µM. For the same compound, the MIC in the test on M. tuberculosis H37Rv was > 100 µM.
In the case of `COc1ccc2[nH]cc(-c3cnc(-c4c[nH]c5ccc(OC)cc45)nc3)c2c1` [formula (14), 3,3'-(pyrimidine-2,5-diyl)bis(5-methoxy-1H-indole)], the MIC with E. faecium ATCC 35667 was 100 µM; against E. faecalis ATCC 51299, 100 µM; against MRSA ATCC 700699, 50 µM; against E. faecalis ATCC 29212 it was 50 µM; in test [1] it was 50 µM; against S. aureus ATCC 25923, > 100 µM. The compound also came in with an MIC with M. tuberculosis H37Rv of 50 µM.
For `Brc1ccc2c(-c3cnc(-c4c[nH]c5cc(Br)ccc45)cn3)c[nH]c2c1` [formula (6), 2,5-bis(6-bromo-1H-indole-3-yl)pyrazine], the MIC (in the test on E. faecium ATCC 35667; with E. faecalis ATCC 51299; against MRSA ATCC 700699; against E. faecalis ATCC 29212; in [1]; against S. aureus ATCC 25923) was > 100 µM throughout. The MIC in the test on M. tuberculosis H37Rv is > 100 µM. Besides, the “activity against the tested strains” value in test [4] is “no activity could be observed”.
In the case of `Brc1cc2[nH]cc(-c3cnc(-c4c[nH]c5cc(Br)c(Br)cc45)cn3)c2cc1Br` [formula (7), 2,5-bis(5,6-dibromo-1H-indole-3-yl)pyrazine], the MIC against E. faecium ATCC 35667 is 50 µM; with E. faecalis ATCC 51299, > 100 µM; against MRSA ATCC 700699 it was 25 µM; in the test with E. faecalis ATCC 29212, 100 µM; in test [1] it was 50 µM; in the test on S. aureus ATCC 25923, 100 µM. The MIC against M. tuberculosis H37Rv is > 100 µM.
